The text below walks through data of ChEMBL document CHEMBL1201862, “PubChem BioAssay data set” (2004).

Test [1] in a line: cells. Type of test: functional, cell-based.
The nature of test [2]: inhibitors of SNCA 5'UTR-driven translation, confirmation, luminescence, H4 neuroglioblastoma cells, dose confirmation (AID 2454).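 Also: H4 neuroglioblastoma cells carrying an alpha-synuclein 5'UTR luciferase reporter; potency for inhibition of the luciferase signal.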 Type of test: functional, cell-based.
Test [3] in a line: inhibitors of SNCA 5'UTR-driven reporter translation, confirmation, H4 neuroglioma cells, luminescence (AID 1988). The class given is functional, cell-based.
For test [4], the target named is T1, Luciferin 4-monooxygenase (Photinus pyralis, UniProt P08659). In words: firefly luciferase enzyme inhibitors, dose response, biochemical, luminescence (AID 1891).
T1 sequence (P08659 whole entry): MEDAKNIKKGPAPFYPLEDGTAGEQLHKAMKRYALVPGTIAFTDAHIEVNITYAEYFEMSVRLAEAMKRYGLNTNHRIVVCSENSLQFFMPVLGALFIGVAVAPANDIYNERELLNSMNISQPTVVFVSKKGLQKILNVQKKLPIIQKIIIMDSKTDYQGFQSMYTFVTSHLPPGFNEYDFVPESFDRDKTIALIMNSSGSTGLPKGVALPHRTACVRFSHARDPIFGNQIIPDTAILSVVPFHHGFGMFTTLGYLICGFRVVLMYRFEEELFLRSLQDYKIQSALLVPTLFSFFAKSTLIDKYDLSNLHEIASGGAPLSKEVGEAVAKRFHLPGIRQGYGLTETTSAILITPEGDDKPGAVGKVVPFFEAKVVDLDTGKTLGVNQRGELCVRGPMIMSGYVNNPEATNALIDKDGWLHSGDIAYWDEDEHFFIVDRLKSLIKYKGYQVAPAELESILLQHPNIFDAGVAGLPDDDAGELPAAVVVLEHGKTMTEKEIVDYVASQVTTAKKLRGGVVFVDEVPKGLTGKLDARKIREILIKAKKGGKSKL
The nature of test [5]: cytotoxicity in HEK-293T cells, dose response, cytotoxicity control for TCR NF-kB inhibitor project, luminescence, T-cell screen hits (AID 489026).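 Also: cells exposed to compound about 14 hours before the viability readout.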 The class given is functional, cell-based.
Test [6] can be described thus: Luminescence-based counterscreen assay for KLF5 inhibitors: dose response cell-based high throughput screening assay to identify cytotoxic compounds using the IEC-6 intestinal epithelial cell line. [Related pubchem assays: 1700 (Primary screen.), 1834 (Confirmation screen.), 1858 (Summary AID.), 1905 (Counterscreen.)]. The class given is functional.
Test [7] addresses T1, Luciferin 4-monooxygenase. Put plainly: Counter Screen for Luciferase-based Assay Positives. [Related pubchem assays: 620, 618, 411 ].
The nature of test [8]: Luminescence Cell-Based Dose Response HTS to Identify Inhibitors of 5'UTR Stem-Loop Driven Prion Protein mRNA Translation in H4 Neuroglioblastoma Cells. [Related pubchem assays: 1827 (Project Summary), 1813 (Primary HTS)]. Type of test: functional.
The nature of test [9]: Luminescence Cell-Based Dose Confirmation HTS to Identify Inhibitors of Platelet Dense Granule Release. [Related pubchem assays: 1663 (Primary HTS), 1678 (Summary of Project)]. The class given is functional.
Test [10] deals with HT-1080. In words: cytotoxicity in HT1080 fibrosarcoma cells, cell-based, fluorescence readout (AID 620). Type of test: functional. Conditions: Homo sapiens.
A short description of test [11]: luciferase reporter signal reduction – luminescence, H4-C neuroglioblastoma cells, dose response (AID 2458).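 Also: H4 neuroglioblastoma cells stably carrying a luciferase reporter gene fusion.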 Type of test: functional, cell-based.
The target of test [12] is Dual specificity tyrosine-phosphorylation-regulated kinase 1A (Rattus norvegicus, UniProt Q63470). Type of test: biochemical, Homo sapiens.
The target in test [13] is Mitogen-activated protein kinase 10 (Homo sapiens, UniProt P53779). In words: Dose response biochemical screening assay for inhibitors of c-Jun N-Terminal Kinase 3 (JNK3). [Related pubchem assays: 746 ].
Sequence of Mitogen-activated protein kinase 10 (P53779 whole entry): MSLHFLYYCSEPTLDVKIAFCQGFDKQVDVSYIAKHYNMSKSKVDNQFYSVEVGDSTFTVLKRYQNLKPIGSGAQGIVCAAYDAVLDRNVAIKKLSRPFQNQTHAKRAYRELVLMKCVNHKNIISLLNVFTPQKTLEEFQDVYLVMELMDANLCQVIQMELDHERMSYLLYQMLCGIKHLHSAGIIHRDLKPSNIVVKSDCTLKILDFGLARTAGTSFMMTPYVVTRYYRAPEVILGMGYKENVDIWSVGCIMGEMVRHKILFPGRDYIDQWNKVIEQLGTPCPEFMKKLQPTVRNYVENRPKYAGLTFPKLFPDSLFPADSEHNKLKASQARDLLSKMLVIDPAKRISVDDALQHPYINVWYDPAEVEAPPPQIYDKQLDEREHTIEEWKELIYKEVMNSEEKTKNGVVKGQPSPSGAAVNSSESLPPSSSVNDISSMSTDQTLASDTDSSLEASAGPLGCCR
A short description of test [14]: inhibitors of firefly luciferase expression or activity, dose response, H4 neuroglioma cells, luminescence (AID 1990). Type of test: functional, cell-based.
Test [15] has as its system Vero. In words: cytotoxicity of synthesized analogs in Vero cells, SAR follow-up, cytotoxicity control for West Nile virus antiviral project, cell-based, set II (AID 2402). Type of test: functional. The following applies: Chlorocebus sabaeus.
The test system of test [16] is Vero. Put plainly: cytotoxicity of synthesized analogs in Vero 76, SAR follow-up, cytotoxicity control for West Nile virus antiviral project, Vero 76 cells (AID 2414). Conditions: Chlorocebus sabaeus. Type of test: functional.
The nature of test [17]: A Cell Based Assay for the Identification of Probe candidate Compounds with Anti- Venezuelan Equine Encephalitis virus. [Related pubchem assays: 2409, 2419, 1621, 2238, 2405, 2024, 2065, 2402, 2414, 1635, 1650, 2244 ]. Type of test: functional.
Test [18] deals with Vero. In words: Vero E6 cell cytotoxicity, SAR follow-up, cytotoxicity control for West Nile virus antiviral project, synthesized analogs (AID 2244). Type of test: functional. Conditions: Chlorocebus sabaeus.
In test [19] the target is Lysosomal acid glucosylceramidase (Homo sapiens, UniProt P04062). Put plainly: Dose response cell-based high throughput screening assay to identify enhancers of beta-glucosidase activity. [Related pubchem assays: 784 ]. The class given is functional.
Sequence of Lysosomal acid glucosylceramidase (P04062 whole entry): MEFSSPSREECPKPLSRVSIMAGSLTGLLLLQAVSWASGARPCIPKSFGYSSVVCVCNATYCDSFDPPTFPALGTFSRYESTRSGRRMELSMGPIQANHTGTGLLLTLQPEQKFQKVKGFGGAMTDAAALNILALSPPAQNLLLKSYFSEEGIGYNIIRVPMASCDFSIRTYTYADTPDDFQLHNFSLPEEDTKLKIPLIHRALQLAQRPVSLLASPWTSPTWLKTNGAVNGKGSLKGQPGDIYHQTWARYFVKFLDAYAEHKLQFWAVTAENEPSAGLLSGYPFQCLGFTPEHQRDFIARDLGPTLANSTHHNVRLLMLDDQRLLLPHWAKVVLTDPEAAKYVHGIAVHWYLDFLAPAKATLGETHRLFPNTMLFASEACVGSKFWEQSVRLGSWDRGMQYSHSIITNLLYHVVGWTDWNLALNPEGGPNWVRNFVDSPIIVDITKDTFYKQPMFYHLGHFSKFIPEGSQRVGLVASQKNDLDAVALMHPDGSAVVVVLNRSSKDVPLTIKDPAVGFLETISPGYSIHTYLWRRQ
The nature of test [20]: inhibitors of Bluetongue virus cytopathic effect, confirmation, arbovirus, BSR cells (AID 1250).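 Also: protection from viral cytopathic effect measured as cell viability by ATP luminescence.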 The class given is functional.
In test [21] the target is T2, fMet-Leu-Phe receptor (Homo sapiens, UniProt P21462).
T2 sequence (P21462 whole entry): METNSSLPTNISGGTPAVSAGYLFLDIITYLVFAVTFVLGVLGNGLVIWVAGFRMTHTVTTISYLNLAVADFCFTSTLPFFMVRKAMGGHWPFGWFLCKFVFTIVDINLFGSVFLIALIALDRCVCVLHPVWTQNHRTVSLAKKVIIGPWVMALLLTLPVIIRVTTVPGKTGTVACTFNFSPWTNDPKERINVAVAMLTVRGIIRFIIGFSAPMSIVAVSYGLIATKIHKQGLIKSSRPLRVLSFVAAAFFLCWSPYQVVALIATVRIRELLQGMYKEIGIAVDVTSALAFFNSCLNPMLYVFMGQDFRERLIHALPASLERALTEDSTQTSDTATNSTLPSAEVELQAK
Put plainly: FPR ligands, dose response (AID 519). Type of test: functional.

The test system of test [22] is Streptococcus sp. 'group A'. In words: growth inhibition of control SK(-) GAS strain, dose response, counter-screen for streptokinase expression inhibitor project, luminescence, kanamycin, BacTiterGlo, confirmation (AID 1900). Type of test: functional, organism-based.
Test [23] relates to Streptococcus. In words: Group A Streptococcus viability loss, dose response, counter-screen for streptokinase expression inhibitor project, luminescence, BacTiterGlo (AID 1915).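 Also: potency for reduction of bacterial viability or growth.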 Type of test: functional, organism-based.
Test [24] deals with T3, Streptokinase A (Streptococcus pyogenes serotype M1, UniProt P10520).
T3 sequence (P10520 whole entry): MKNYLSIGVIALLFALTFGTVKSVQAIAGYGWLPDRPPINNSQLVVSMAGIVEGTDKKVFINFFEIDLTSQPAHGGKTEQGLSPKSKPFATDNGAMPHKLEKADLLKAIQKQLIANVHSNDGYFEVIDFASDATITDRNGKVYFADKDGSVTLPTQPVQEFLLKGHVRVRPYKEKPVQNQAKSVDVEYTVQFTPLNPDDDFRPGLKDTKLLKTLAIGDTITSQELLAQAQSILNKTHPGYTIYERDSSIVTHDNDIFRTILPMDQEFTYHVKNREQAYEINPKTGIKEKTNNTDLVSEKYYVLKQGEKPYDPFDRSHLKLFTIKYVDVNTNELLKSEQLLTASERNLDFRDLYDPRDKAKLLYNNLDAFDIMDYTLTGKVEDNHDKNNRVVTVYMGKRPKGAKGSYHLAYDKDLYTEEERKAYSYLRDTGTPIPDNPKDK
In words: S. pyogenes streptokinase expression inhibitors, potency, dose response, plasminogen activation absorbance, OD405 (AID 1914).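 Also: secreted streptokinase activity via plasminogen activation per viability signal from cell pellet.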 Type of test: functional, Streptococcus pyogenes M1 GAS.

The subject of test [25] is Streptococcus. In words: Luminescence Microorganism-Based Dose Response Follow up to Identify Compounds Cytotoxic to Streptococcus. [Related pubchem assays: 1677 (Project Summary), 1915, 1914, 1902 (Retest at Dose), 1900 (Counter Screen), 1662 (Primary HTS)]. The class given is functional, organism-based.

The source made the active and inactive calls. Rule as the data show it, for most assays here: actives have a measured EC50 and inactives only a lower limit.

As for `CCN1C=CC(=C2C(=O)c3ccccc3C2=O)C=C1`, the EC50 in test [1] was 0.317 µM (active); in test [2], 0.247 µM (active); in test [3] it was < 0.1 µM (active); in test [4], 1.85 µM (active); in [7] it was 10.1 µM (active); in test [8], < 0.1 µM (active). The EC50 was 6.3 µM (active) in test [9], > 50 µM (not active) in test [10], 0.324 µM (active) in test [11] and < 0.1 µM (active) in test [14]. Besides, the IC50 in test [5] is > 80 µM (inactive); in [6], 15 µM (not active); in [13] it was 43.5 µM (not active). Moreover, the AC50 in test [12] is 13.6 µM (active).

Take `COc1ccc(-c2csc(N(C(=O)c3ccccc3Cl)C(C)C)n2)cc1`: the CC50 was 13.5 µM (active) in [15], 35.5 µM (active) in test [16] and 22.4 µM (active) in [18]. For the same compound, the IC50 in test [17] was > 66.6 µM (active).

With `COc1ccc(CNC(=O)CCCNS(=O)(=O)c2cccc3nonc23)cc1`, the EC50 in [19] was > 50 µM (not active).

As for `CCOC(=O)c1sc(=S)n2c1[nH]c(=O)c1ccc(C(=O)OC)cc12`, in test [20], the IC50 is 53 µM (active). The Ki in test [21] is > 66.7 µM (inactive). Moreover, the EC50 in [22] is 6.34 µM (active); in [23], 11.5 µM (active); in test [24], > 150 µM (not active).

For the compound `O=C(CSc1cccs1)N1c2ccccc2Sc2ccccc21`, the EC50 in test [25] is > 500 µM (not active).
